# Structures can show the parent of a compound that is named as a salt.
# Test: Dissolution test, Japanese Pharmacopoeia 17th Edition, paddle method, water
# Assay type: physicochemical
# Settings: for dissolution rate of the mixture with an excipient after compression molding versus the mixture not compression molded: drug mixed with an excipient, compression molded in the same manner as in this embodiment
# Method: With respect to the granular compositions of Examples 1 to 8, and Comparative Examples 1 to 8 prepared as described above, a dissolution test was performed. The dissolution test was performed according to the dissolution test method of the Japanese Pharmacopoeia, Seventeenth Edition. By using a dissolution testing device (NTR-6000 series, manufactured by Toyama Sangyo Co., Ltd.), the dissolution test was performed by a paddle method using water as a dissolution test liquid. At this time, the volume of the dissolution test liquid was set to 900 mL, the temperature of the dissolution test liquid was set to 37 ±0.5° C., and the paddle rotation rate was set to 50 rpm. With respect to the respective Examples and the respective Comparative Examples, the total amount was added to the dissolution test liquid, and the dissolution test liquid was sampled at 5, 10, 15, 30, 45, 60, 90, and 120 minutes after the start of the test, and filtered through a 0.45-μm filter (manufactured by Whatman GE Healthcare Biosciences), and then, the dissolution rate of Compound (I) was measured using high performance liquid chromatography.
# FIGS. 5 to 9 show the time course of the dissolution rate of Compound (I) in the granular compositions of Examples 1 to 5, respectively, and also show the time course of the dissolution rate of Compound (I) in Comparative Examples 1 to 5, respectively. […] In FIGS. 5 to 11, the vertical axis represents the dissolution rate (unit: %) and the horizontal axis represents a time (unit: min). The solid lines E1 to E8 represent the cases of Examples 1 to 8, respectively, and the broken lines C1 to C8 represent the cases of Comparative Examples 1 to 8, respectively.
dissolution property of Compound (I) (in a granule obtained by a fluidized bed granulation method),dissolution rate of the mixture with an excipient after compression molding versus the mixture not compression molded,Structure (SMILES)
low,,"CC(C)N(CCCCOCC(=O)NS(C)(=O)=O)c1cnc(-c2ccccc2)c(-c2ccccc2)n1 [Compound (I), 2-{4-[N-(5,6-diphenylpyradin-2-yl)-N-isopropylamino]butyloxy}-N-(methylsulfonyl)acetamide]"
,substantially equivalent,CC(=O)Nc1ccc(O)cc1 [acetaminophen]
,substantially equivalent,CCN(CC)C(=O)Nc1ccc(OCC(O)CNC(C)(C)C)c(C(C)=O)c1 (stereo not shown) [celiprolol hydrochloride]
,substantially equivalent,COc1ccc2c(c1)c(CC(=O)O)c(C)n2C(=O)c1ccc(Cl)cc1 [indomethacin]
